Laboratory results from a melting point compilation (Tetko et al.).
Peptide text beside a SMILES is read from it.

Row | SMILES | melting point [°C]
1 | CC(=O)NC(C)C(=O)O (racemic) | 137
2 | O=[N+]([O-])c1ccc(Sc2ccccc2)cc1 | 56
3 | COc1ccc(OC)c(C=CC(=O)n2cnc3c(N)ncnc32)c1 | 260 to 262
4 | Oc1ccccc1C=Nn1c(S)nnc1C(F)(F)F | 155
5 | Nc1c(F)c(F)c(C(=O)O)c(F)c1F | 183
6 | NC(=O)/C(=N\Nc1ccc(F)cc1)c1nc2ccccc2s1 | 158
7 | O=C(O)CCSCCCSCCC(=O)O | 107 to 109
8 | C/C(=N\NC(N)=O)c1ccc(C)cc1 | 204
9 | NNC(=S)NCc1ccc2c(c1)OCO2 | 158 to 160
10 | O=C(C=Cc1ccc([N+](=O)[O-])cc1)c1ccccc1 | 164
11 | CC(=O)C1(O)CCC2C3C=C(C)C4=CC(=O)CCC4(C)C3CCC21C (configuration not stated) | 219
12 | O=[N+]([O-])c1c(Cl)cccc1-c1c[nH]cc1Cl | 124
13 | Cc1[nH]c2ccccc2c1C | 106
14 | CCCCCCCOC(=O)CCCC | -46.4
15 | CCCC(C(N)=O)c1ccc(O)c(O)c1 (configuration not stated) | 133 to 135
16 | N#C/C(=C\c1ccccc1)c1nc2ccccc2s1 | 105
17 | COC(=O)C1=C(C)c2ccccc2C1 | 66
18 | OCc1ccc(Oc2ccccc2)cc1 | 55 to 56
19 | CCCCCCCCCCCCc1ccccc1 | 3
20 | CCOC(=O)/C(C#N)=C(/c1ccc([N+](=O)[O-])cc1)C(C(=O)OCC)C(=O)OCC | 110
21 | CCCSc1ccccc1 | -45
22 | COc1cc(F)c(F)cc1OC | 40

Row | SMILES | melting point [°C]
23 | Cc1n[nH]c(=S)n(N)c1=O | 183 to 184
24 | Brc1c(Br)c(Br)c(-c2c(Br)c(Br)c(Br)c(Br)c2Br)c(Br)c1Br | 375
25 | CC(=O)Nc1nc(O)c2nc[nH]c2n1 | 260
26 | COC(=O)C1CC(=O)CN1C(=O)OC(C)(C)C (configuration not stated) | 38
27 | Cc1ccc(NN=c2c(C)nc3ccccc3[nH]c2=O)cc1 | 179
28 | CC(=O)Nc1ccc(C(F)(F)F)cc1N | 141 to 143
29 | Cc1ccc2cc(N)ccc2n1 | 190
30 | Cc1ccc2cc([N+](=O)[O-])ccc2n1 | 165 to 166
31 | Fc1cc(F)c(Br)c(Br)c1 | 37
32 | COP(=S)(OC)Oc1ccc(Sc2ccc(OP(=S)(OC)OC)cc2)cc1 | 30.3
33 | COc1ccccc1N1CCN(CC(N)=S)CC1 | 130 to 132
34 | CNC(C)=CC(=O)OC | 62 to 68
35 | N#Cc1c2ccccc2c(C#N)c2ccccc12 | 337
36 | CC1C2Cc3ccc(O)cc3C1(C)CCN2CCc1ccccc1 (configuration not stated) | 181
37 | O=C(Oc1cc(Cl)cc(Cl)c1)c1ccc(C(=O)Oc2cc(Cl)cc(Cl)c2)cc1 | 230
38 | Cc1ccc2c(c1Cl)C(=O)c1ccccc1C2=O | 170
39 | CCCCOC(=O)C1=C(C)NC(=O)NC1c1ccco1 (configuration not stated) | 170
40 | Clc1ccc(C(Cl)(Cl)Cl)cc1Cl | 25.8
41 | CSc1nc(N=Cc2ccc(Cl)cc2)nn1C | 136 to 138
42 | N#Cc1ccccc1-n1ccnc1 | 148 to 151
43 | OC1c2ccccc2C=Cc2ccccc21 | 126
44 | Cc1nc(-c2ccc(S(=O)(=O)NN)cc2)c(-c2ccc(S(=O)(=O)NN)cc2)o1 | 178 to 180

Row | SMILES | melting point [°C]
45 | OCCN(CCO)c1nc(N2CCCCC2)c2nc(N(CCO)CCO)ncc2n1 | 158
46 | COc1cc(C=C(S)C(=O)O)ccc1O | 161
47 | CCCCCCC(=O)CCCCC | 10
48 | CN(C)C(=O)COC(=O)c1ccccc1 | 81.5
49 | CCCCC(C(=O)O)C(=O)N(Nc1ccccc1)c1ccccc1 (configuration not stated) | 116
50 | C#CC1(O)CCC2C3CCC4C(C)(C)CCCC4(C)C3CCC21C (configuration not stated) | 156 to 158
51 | Cc1ccc(O)c2ccccc12 | 85.8
52 | CCC1C(=O)CCC1=O | 172 to 175
53 | O=C(Nc1cccc(Br)c1)c1cncc(Cl)n1 | 100
54 | CN(C)CCCN1c2ccccc2CCc2ccc(Cl)cc21 | 190
55 | Cc1nccn1-c1cccc(C(=O)O)c1 | 182 to 184
56 | O=C(NCc1ccccc1)OCCO | 40
57 | CNc1ccncc1 | 126
58 | c1ccc(-c2nc3ccccc3[nH]2)cc1 | 293 to 296
59 | CSC(SC)=C(C#N)C(=O)NCc1ccccc1 | 81
60 | CCc1cccc(CC)c1N(COC)C(=O)CCl | 41
61 | CC(C)(C)NC=O | 16
62 | COc1cc(N)c(C(C)=O)cc1OC | 106
63 | CCCCCCCCCCCCCCCCCCNC | 44
64 | CC(=O)/C=C/c1ccc([N+](=O)[O-])o1 | 192 to 195
65 | CC1(C)OC(=O)C(=Cc2ccc(-c3ccc(Br)cc3)o2)C(=O)O1 | 182
66 | CCCCCCCCCCCCCCCN | 37.3

Row | SMILES | melting point [°C]
67 | O=C(CBr)c1cc(C(=O)CBr)cc(C(=O)CBr)c1 | 111
68 | CC12CCC(=O)C=C1CCC1C2C(O)CC2(C=O)C(C(=O)CO)CCC12 (configuration not stated) | 167
69 | O=C(Cl)C=Cc1ccccc1Cl | 38
70 | CC(C)C[N+](=O)[O-] | -76.8
71 | COc1ccc([N+](=O)[O-])cc1C(F)(F)F | 79 to 81
72 | Cc1ccc(-c2cccc(C)c2)cc1 | 14.5
73 | ClCc1nc(-c2ccccc2)no1 | 42
74 | COc1cc(C)c(C(O)C#N)cc1OC (configuration not stated) | 80
75 | CC(C)(C)OC(=O)CN=C(c1ccccc1)c1ccccc1 | 114
76 | O=C(O)CCN1CCNCC1 | 71 to 86
77 | CCCc1ccc(O)cc1O | 82.5
78 | COc1ccc(CO)c(OC)c1 | 37 to 40
79 | COC(=O)CCC(C)C1CCC2C3C(OC(C)=O)CC4CC(OC(C)=O)CCC4(C)C3CC(=O)C12C (configuration not stated) | 178
80 | CC(=O)OC1CCC2C3CCC4CC(=C(C)C)CCC4(C)C3CCC12C (configuration not stated) | 107 to 108
81 | CCCCCCCC/C=C\CCCCCCCCCCCC(=O)O | 33.5
82 | OCc1cccnc1N1CCOCC1 | 80 to 83
83 | CCC1(C)C=C/C(=N\NS(=O)(=O)c2ccc(C)cc2)CC1 (configuration not stated) | 159 to 169
84 | Nc1cc(N)cc(C(F)(F)F)c1 | 88 to 89
85 | CC(C)(C)C1CCC(O)CC1 (configuration not stated) | 66
86 | COC(=O)c1sccc1Oc1ccc(Cl)cc1[N+](=O)[O-] | 125 to 128
87 | O=C1NN=C(C(F)(F)F)C1=NNc1ccc(Cl)cc1 | 215
88 | COc1ccc2c(c1)=NC1=C(C)NCCC=21 | 230

Row | SMILES | melting point [°C]
89 | N#Cc1ccc(F)cc1F | 46
90 | CCC(=O)C(=O)O | 33
91 | CNC(=O)Oc1ccc(SC)c(C)c1 | 118
92 | CC(=O)NCCc1ccccc1NC(C)=O | 144
93 | c1ccc(SCSc2ccccc2)cc1 | 37
94 | Sc1nccs1 | 78.5
95 | CCO[C@H]1OC(C(N)=O)=CC[C@H]1Br | 141 to 142
96 | C[C@H](N)C(=O)N[C@@H](C)C(=O)O (H-Ala-Ala-OH) | 286 to 288
97 | O=S1(=O)OCC2C(CO1)C1(Cl)C(Cl)=C(Cl)C2(Cl)C1(Cl)Cl (configuration not stated) | 182
98 | O=C(O)c1ccc2[nH]ccc2c1 | 210
99 | CC1(C)CC(=O)CC(C)(C)N1 | 36
100 | CCOC(=O)C=Cc1ccccc1 | 7
101 | Cc1cc(-c2ccc(NC=O)c(C)c2)ccc1NC=O | 265 to 270
102 | NNC(=O)c1ccc([N+](=O)[O-])cc1 | 210 to 214
103 | COc1ccc2[nH]cc(CCNC(C)=O)c2c1 | 117
104 | O=C1NC2CCCC12 (configuration not stated) | 45 to 50
105 | O=C(Nc1ccccn1)C(F)(F)C(F)(F)C(F)(F)C(F)(F)C(F)(F)C(F)(F)C(F)(F)C(F)(F)F | 66
106 | O=C(CCl)Nc1ccc(Br)cc1 | 136 to 137
107 | CSc1nc(N)nc(-c2cc(Cl)cc(Cl)c2)n1 | 214 to 216
108 | N#CCc1cccc(Cl)c1Cl | 66 to 69
109 | CCCOC1CCC2(C)C(CCC3C2CCC2(C)C(OCCC)CCC32)C1 (configuration not stated) | 112 to 135
110 | CC1(C)C2CC3C(C2)C31C | 67.5

Row | SMILES | melting point [°C]
111 | O=[N+]([O-])c1ccc2c3c(ccc(C(Cl)=Cc4ccccc4)c13)CC2 | 161
112 | COc1ccccc1NC(=O)C(C(F)(F)F)C(F)(F)F | 163
113 | C[Si](Cn1cncn1)(c1ccc(F)cc1)c1ccc(F)cc1 | 54
114 | CC12CCC(c3cn(-c4ccccc4)nc31)C2(C)C (configuration not stated) | 125
115 | NC(=S)c1cccc(-n2cccc2)c1 | 110 to 112
116 | N#CC1=C(N)OC2(C(=O)Nc3ccccc32)C2=C1CCCC2 (configuration not stated) | 231
117 | O=C(O)c1cc(Br)c(C(=O)O)cc1Br | 315 to 318
118 | O=Cc1ccc2oc3ccccc3c2c1 | 74
119 | O=C(O)c1c(Cl)cccc1[N+](=O)[O-] | 164
120 | CCCC(=O)c1ccc(N)cc1 | 94 to 95
121 | Cc1nccc2ccccc12 | 10
122 | CCN(CC)c1ccc2cc(-c3nc4ccccc4s3)c(=O)oc2c1 | 205 to 208
123 | NC(=O)C1CCCN1C(=O)COC(=O)c1ccccc1 (configuration not stated) | 194
124 | CN(C(=S)Cl)c1ccc(Cl)cc1 | 76 to 78
125 | CC(C)(C)OC(=O)N[C@H]1CCC[C@H]1C(=O)O (relative stereo) | 90 to 94
126 | CC(C)(C)c1cc(C(C)(C)C)c(O)c(C(C)(C)C)c1 | 131
127 | C#CC(C)(C)Oc1ccc(C#N)cc1 | 30 to 32
128 | Nc1cccc(-c2ccsc2)c1 | 89
129 | ClC(Cl)=C(Cl)C(Cl)=C(Cl)Cl | -21
130 | O=c1cc(-c2ccccc2)oc2cc(O)ccc12 | 246
131 | CCCC(C(N)=O)n1nc2ccccc2n1 (configuration not stated) | 126
132 | CC1(C)CC(=O)C=C(C(=O)O)O1 | 167 to 171
